Measurements taken from patent US20230381170A1, “METHOD FOR TREATING ALS/FTD THROUGH DEGRADATION OF RNA REPEAT EXPANSION” (University of Florida Research Foundation, Incorporated, priority 2020, published 2023).
Entries after “also recorded” stand apart in the source; their conditions may differ. Blank lines part the entries; values can stand above or below the compound they belong to.

How the values were obtained:
[1] = biological target: r(G4C2)8 and hnRNP H1 complex; test: TR-FRET hnRNP H binding assay; type: biochemical; details: inhibiting r(G4C2)8 and hnRNP H1 complex formation; 7 in the absence of Rnase L
Description: TR-FRET hnRNP H Binding Assay. TR-FRET assays were performed as previously described (12). The mixture was incubated for 15 min at room temperature and then hnRNP H1-His6 was added. After an additional 15 min incubation, streptavidin-XL665 (HTRF, Cisbio Bioassays) and anti-His6-Tb (HTRF, Cisbio Bioassays) were added to a final concentration of 40 nM and 0.44 ng/μL, respectively. After incubating for 1 h, TR-FRET was measured as previously described (12).

[2] = system: r(G4C2)66-No ATG-GFP mRNA; test: RNA levels in transfected HEK293T cells by RT-qPCR; type: cell-based, human
Description: Measuring RNA Levels in HEK Cells. HEK293T cells were seeded at 2×10^6 in 100 mm dish and incubated at 37° C. overnight. Cells were transfected with 2.5 μg of the (G4C2)66-No ATG-GFP plasmid with Lipofectamine 3000 (Life Technologies) per the manufacturer's protocols. After 5 h, the cells were collected and split into 24-well plate with 5×10^4 cells per well. After 2 h, the compounds were added and incubated for another 24 h.
Total RNA was extracted using a Quick-RNA Miniprep Kit (Zymo Research) per the manufacturer's protocol. Approximately 1 μg of total RNA, as determined by Nanodrop, was used for reverse transcription using qScript Kit (Quantbio) per the manufacturer's protocol. RT-qPCR was performed on a 7900HT Fast Real Time PCR System (Applied Biosystem) using Power SYBR Green Master Mix (Applied Biosystems). Expression levels of mRNAs were normalized to β-actin.
Rnase L Knockdown. HEK293T cells were seeded in growth medium in a 100 mm dish and incubated at 37° C. until ˜80% confluent. Cells were transfected with 2.5 µg (G4C2)66-No-ATG-GFP for 5 h with Lipofectamine 3000 (Life Technologies) per the manufacturer's recommended protocol. Following transfection, the cells were plated in 6-well plates and incubated at 37° C. until ˜80% confluent. Compounds were added in growth medium and incubated for 24 h. Following compound treatment, the siRNA of interest (Table 3) were transfected with RNAiMax (Life Technologies) at a final concentration of 50 nM for 24 h per the manufacturer's recommended protocol. Total RNA was extracted using a Quick-RNA Miniprep Kit (Zymo Research) per the manufacturer's protocol. Intron 1 abundance was assessed by RT-qPCR as described above.

Poly(GP) [3] = test: Poly(GP) by electrochemiluminescent immunoassay in patient-derived LCLs; type: cell-based, human
Description: (§1) Measuring Poly(GP) Levels by Electrochemiluminescence. LCLs were seeded in T-25 flash at 400,000 cells/mL in 5 mL of growth medium. After overnight incubation, the cells were treated with compound or ASO for 4 days at 37° C. After the treatment period, the cells were pelleted, and total protein was extracted by incubating with CoIP2 Buffer (50 mM Tris-HCL, pH 7.4, 300 mM NaCl, 5 mM EDTA, 1% (v/v) Triton-X 100, 2% (w/v) sodium dodecyl sulfate, and 0.01% (v/v) protease and phosphatase inhibitors) on ice for 5 min and then sonication (3 s intervals at 35% power for ˜40 s). Detergent was then removed using Pierce™ Detergent Removal Spin Columns following manufacturer's protocol. Protein concentration was measured by Pierce™ BCA Protein Assay Kit.
(§2) Levels of poly(GP) were measured using Meso Scale Discovery MSD Gold 96-well Streptavidin SECTOR plates. Both capture and detection antibodies were generated using an anti-poly(GP) antibody kindly provided by the Target ALS Foundation. To serve as the capture antibody, the poly(GP) antibody was conjugated to biotin using EZ-Link™ Sulfo-NHS-LC-Biotin (Thermo Fisher) as per the manufacturer's protocol. To serve as the detection antibody, the poly(GP) antibody was sulfo-tagged using MSD GOLD SULFO-TAG NHS-Ester (Meso Scale Discovery) as per the manufacturer's protocol. The conjugated antibodies were desalted with 40K Zeba™ Spin Desalting Columns (Thermo Fisher Scientific), and their concentrations were determined by Pierce™ BCA Protein Assay Kit.
Briefly, the plates were incubated with 2 μg/ml of anti-poly(GP)-biotin antibody at 4° C. overnight. The wells were then washed three times with 1×TBST [1×Tris-buffered saline (TBS) containing 0.1% (v/v) Tween-20] and blocked with 3% BSA in 1×TBST for 1 h at room temperature (with shaking). The blocking solution was removed, and the wells were washed 3 times with 150 μL of 1×TBST. […] After washing with 150 μL of 1×TBST three times, 1×MSD GOLD Read Buffer was added to each well, and electrochemiluminescence was measured using a SECTOR Imager (MSD). […]

Poly(GP) [4] = test: Poly(GP) by immunoassay in patient-derived iPSCs; type: cell-based, human; details: for Poly(GP) levels: iPSCs from c9ALS patients
Description: (§3) iPSCs were treated for 4 days in Matrigel (356234, Corning) coated plates with mTeSR™1 feeder-free medium ([…] Technologies; Catalog #85850). Cells were treated in 6-well plates on day 1 and 3 with compounds diluted in 0.1% final DMSO.
as §1, §2
Briefly, the plates were incubated with 2 μg/ml of anti-poly(GP)-biotin antibody at 4° C. overnight. […] After washing with 150 μL of 1×TBST three times, 1×MSD GOLD Read Buffer was added to each well, and electrochemiluminescence was measured using a SECTOR Imager (MSD). […]

[5] = system: C9orf72 intron 1 harboring r(G4C2)exp; test: C9orf72 intron 1 RT-qPCR in patient-derived iPSCs; type: cell-based, human
Description: as §3
Measuring Levels of C9orf72 and C9orf72 Variants by RT-qPCR. LCLs were seeded in 6-well plate (˜10^6 cells in 2 mL of growth medium) and incubated overnight at 37° C. Cells were then treated with various concentrations of compound for 24 h or with G4C2-ASO and Control-ASO (100 nM), delivered by transfection with Lipofectamine RNAiMax. RNA was extracted as described above and the expression of C9orf72 variants was determined by RT-qPCR. For iPSC and iPSC-derived motor neuron cell line, the cells were seeded into Matrigel-coated 6-well plate to ˜60% confluence before treated with 3 μM C9orf72-ASO or Control-ASO and various concentrations of compound for 1 to 2 weeks. For compound treatment well, medium change was performed with fresh compound every 3-4 days. RNA was extracted as described above and the expression of C9orf72 variants was determined by RT-qPCR.

IC50 [1]: 2.4 ± 0.1 µM
SMILES: CCOC(=O)C1=C(Nc2ccccc2)S/C(=C\c2ccc(OCCOCCOCCOCCNC(=O)CCC(=O)N(CCOCCOCCOc3ccc4[nH]c5c(C)c6ccncc6c(C)c5c4c3)CCOCCOCCOc3ccc4[nH]c5c(C)c6ccncc6c(C)c5c4c3)c(O)c2)C1=O [Compound 7]
reduction of r(G4C2)exp-containing mRNA ([2]; 500 nM compound): 46±2%
ability to reduce r(G4C2)exp levels upon knock down of Rnase L by siRNA ([2]; RNase L siRNA versus control siRNA): ablated
reduction of Poly(GP) levels (Poly(GP) [3]; 500 nM): 71±11%
increase in potency over parent compound 3 (Poly(GP) [3]; Poly(GP) in LCLs): 5 fold
potency and duration of activity for reducing Poly(GP) abundance compared to parent compound 3 (Poly(GP) [4]): significant increase in potency and a prolonged period of activity; also recorded: significant (P<0.05) increase in potency and a prolonged duration of activity
Poly(GP) levels (Poly(GP) [4]): significant reduction
reduction of r(G4C2)exp-containing intron 1 levels ([5]; 50 nM): 45±11%
reduction of r(G4C2)exp-containing intron 1 levels ([5]; 500 nM): 64±10%

IC50 [1]: 0.9 ± 0.1 µM
SMILES: Cc1c2ccncc2c(C)c2c1[nH]c1ccc(OCCOCCOCCNCCOCCOCCOc3ccc4[nH]c5c(C)c6ccncc6c(C)c5c4c3)cc12 [Compound 3]
r(G4C2)66 levels ([2]; HEK293T): without affecting
Poly(GP) expression (Poly(GP) [3]; 5, 50 and 500 nM for 4 days): dose-dependent decrease
Poly(GP) levels (Poly(GP) [4]): reduced Poly(GP) levels dose-dependently
C9orf72 intron 1 levels ([5]; patient-derived iPSCs): no effect
